Measured values taken from US6214869A, “Heterocyclic cis cyclopropane derivatives as melatonergic agents” (Bristol-Myers Squibb, priority 1999, dated 2001).

Target: T1, ML1a human melatonin receptor (Homo sapiens, UniProt P48039)
T1 construct: expressed in transfected cells
Test: Melatonergic receptor binding (2-[125I]-iodomelatonin, membranes of NIH-3T3 cells expressing ML1a receptor)
Settings: 37° C. for 1 hour, read-out: Melatonin Binding Affinity (IC50)
Method: Melatonergic Receptor Binding Activity
(a) TME=50 mM Tris buffer containing 12.5 mM MgCl2, and 2 mM EDTA, pH 7.4 at 37° C. with concentrated HCl.
(b) Wash buffer: 20 mM Tris base containing 2 mM MgCl2, pH 7.4 at room temperature.
(c) 10^-4 M melatonin (10^-5 M final concentration).
(d) 2-[^125 I]-iodomelatonin, 0.1 M final concentration
The melatonin ML1a receptor cDNA was subcloned into pcDNA3 and introduced into NIH-3T3 cells using Lipofectamine. Transformed NIH-3T3 cells resistant to geneticin (G-418) were isolated, and single colonies expressing high levels of 2[^125 I]-iodomelatonin binding were isolated. Cells are maintained in DMEM supplemented with 10% calf serum and G-418 (0.5 g/liter). Cells are grown to confluency in T-175 flasks, scraped using Hank's balanced salt solution, and frozen at -80° C. For preparing membrane homogenates, pellets are thawed on ice, and resuspended in TME buffer in the presence of 10 μg/ml aprotinin and leupeptin, and 100 μM phenylmethylsulfonylfluoride. The cells were then homogenized using a dounce homogenizer, and centrifuged. The resulting pellet was resuspended with dounce homogenizer in TME (supplemented with the above protease inhibitors) and frozen. On the day of assay, the small aliquot was thawed on ice and resuspended in ice cold TME (1:50-1:100 v/v) and held on ice until assayed.
3. Incubation: 37° C. for 1 hour. Reaction is terminated by filtration. Filters are washed 3 times.
^a = (IC50) values for ML1a human melatonin receptor binding

T1 sequence (P48039 whole entry): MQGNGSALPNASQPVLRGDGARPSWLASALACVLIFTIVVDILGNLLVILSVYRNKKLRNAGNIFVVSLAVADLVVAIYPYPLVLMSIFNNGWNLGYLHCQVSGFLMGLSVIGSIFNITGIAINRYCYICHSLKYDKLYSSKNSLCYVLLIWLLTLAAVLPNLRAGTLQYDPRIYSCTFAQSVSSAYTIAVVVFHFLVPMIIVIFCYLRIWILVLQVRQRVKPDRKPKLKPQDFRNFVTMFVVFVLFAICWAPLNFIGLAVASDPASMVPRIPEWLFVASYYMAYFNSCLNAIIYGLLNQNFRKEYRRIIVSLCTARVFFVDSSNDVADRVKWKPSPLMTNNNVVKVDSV

Row | IC50 [nM] | SMILES
1 | < 50 | CCC(=O)NC[C@@H]1C[C@@H]1c1cccc2c1CCO2 (relative stereo) [Example 1, (cis)-N-[[2-(2,3-Dihydrobenzofuran-4-yl)cycloprop-1-yl]methyl]propanamide]
2 | 50 to 200 | CC(=O)NC[C@@H]1C[C@@H]1c1cccc2c1CCO2 (relative stereo) [Example 2, (cis)-N-[[2-(2,3-Dihydrobenzofuran-4-yl)cycloprop-1-yl]methyl]acetamide]
3 | < 50 | O=C(NC[C@@H]1C[C@@H]1c1cccc2c1CCO2)C1CC1 (relative stereo) [Example 3, (cis)-N-[[2-(2,3-Dihydrobenzofuran-4-yl)cycloprop-1-yl]methyl]cyclopropane carboxamide]
4 | < 50 | CCCC(=O)NC[C@@H]1C[C@@H]1c1cccc2c1CCO2 (relative stereo) [Example 4, (cis)-N-[[2-(2,3-Dihydrobenzofuran-4-yl)cycloprop-1-yl]methyl]butyramide]
5 | < 50 | CC(C)C(=O)NC[C@H]1C[C@H]1c1cccc2c1CCO2 (relative stereo) [Example 5, (cis)-N-[[2-(2,3-Dihydrobenzofuran-4-yl)cycloprop-1-yl]methyl]-2-methyl propanamide]
